Data as given in patent publication US20100021940A1, “Method for Determining the Activity of a Protease in a Sample” (ASTRAZENECA AB, priority 2006, published 2010).

Assays:
Test in all cases: Activity of purified MMP on substrate (reporter release)
MMP9 = assay type: biochemical, human
Text: In order to confirm the specificity of the substrates for various MMPs, standard enzymatic assays were adapted to monitor the release of reporter. The reporter was either analysed by a LC-MS method as described in Example 3a, or by a LC-UV method as described in Example 4. […] The enzyme can be used to monitor activity of substrates as follows: […]

MMP14 = assay type: biochemical, human; settings: 30 μM substrate; MMP Conc. 4.8 nM; AZL0078
Text: (§1) In order to confirm the specificity of the substrates for various MMPs, standard enzymatic assays were adapted to monitor the release of reporter. The reporter was either analysed by a LC-MS method as described in Example 3a, or by a LC-UV method as described in Example 4.
Recombinant human MMP14 catalytic domain may be expressed and purified as described by Parkar A. A. et al, (2000), Protein Expression and Purification, 20, 152. The purified enzyme can be used to monitor activity of substrates as follows: MMP14 (10 ng/ml final […]) in assay buffer (0.1M “Tris-HCl” (trade mark) buffer, pH 7.5 containing 0.1M NaCl, 20 mM CaCl2, 0.020 mM ZnCl and 0.05% (w/v) “Brij 35” (trade mark) detergent) in the presence or absence of inhibitors. Activity is determined by measuring the release of reporter 4-nitroaniline by the using the method in Example 3a.

MMP16 = MMP16 (Homo sapiens, UniProt P51512); assay type: biochemical; settings: 30 μM substrate; MMP Conc. 4.3 nM; Calbiochem #475939
Text: as §1
(§2) A protocol for testing against other matrix metalloproteinases, including MMP9, using expressed and purified pro MMP is described, for instance, by C. Graham Knight et al., (1992) FEBS Lett., 296(3), 263-266.

MMP2 = molecular target: T1, MMP2 (Homo sapiens, UniProt P08253); assay type: biochemical; settings: 30 μM substrate; MMP Conc. 0.71 nM; Chemicon #CC071
T1 sequence (P08253 110-660): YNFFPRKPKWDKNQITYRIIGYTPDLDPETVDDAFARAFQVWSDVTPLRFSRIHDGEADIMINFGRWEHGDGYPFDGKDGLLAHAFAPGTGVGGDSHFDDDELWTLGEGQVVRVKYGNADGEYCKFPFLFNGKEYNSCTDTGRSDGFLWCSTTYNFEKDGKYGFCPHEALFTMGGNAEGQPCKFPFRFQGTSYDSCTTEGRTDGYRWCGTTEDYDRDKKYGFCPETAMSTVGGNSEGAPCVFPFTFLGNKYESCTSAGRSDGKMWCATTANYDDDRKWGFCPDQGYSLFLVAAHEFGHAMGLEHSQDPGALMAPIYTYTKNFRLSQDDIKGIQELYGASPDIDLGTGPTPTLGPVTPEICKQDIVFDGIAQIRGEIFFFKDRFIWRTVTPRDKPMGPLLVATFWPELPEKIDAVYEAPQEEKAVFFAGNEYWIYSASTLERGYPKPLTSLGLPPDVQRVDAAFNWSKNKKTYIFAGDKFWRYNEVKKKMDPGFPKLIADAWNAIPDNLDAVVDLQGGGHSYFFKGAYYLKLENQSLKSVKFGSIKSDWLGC
Text: as §1, §2

MMP13 = MMP13 (Homo sapiens, UniProt P45452); assay type: biochemical; settings: 30 μM substrate; MMP Conc. 1.2 nM; AZAP0.5 mg/ml
Text: as §1, §2

MMP19 = assay type: biochemical, human; settings: 30 μM substrate; MMP Conc. 19 nM; AZL0095
Text: as §1
Recombinant human MMP19 catalytic domain may be expressed and purified as described by Parkar A. A. et al, (2000), Protein Expression and Purification, 20:152. The purified enzyme can be used to monitor activity of substrates as follows: MMP19 (40 ng/ml […]) in assay buffer (0.1M “Tris-HCl” (trade mark) buffer, pH 7.3 containing 0.1M NaCl, 20 mM CaCl2, 0.020 mM ZnCl and 0.05% (w/v) “Brij 35” (trade mark) detergent) in the presence or absence of inhibitors. Activity is determined by measuring the release of reporter 4-nitroaniline by the using the method in Example 3a.

MMP16, sequence (P51512 120-607): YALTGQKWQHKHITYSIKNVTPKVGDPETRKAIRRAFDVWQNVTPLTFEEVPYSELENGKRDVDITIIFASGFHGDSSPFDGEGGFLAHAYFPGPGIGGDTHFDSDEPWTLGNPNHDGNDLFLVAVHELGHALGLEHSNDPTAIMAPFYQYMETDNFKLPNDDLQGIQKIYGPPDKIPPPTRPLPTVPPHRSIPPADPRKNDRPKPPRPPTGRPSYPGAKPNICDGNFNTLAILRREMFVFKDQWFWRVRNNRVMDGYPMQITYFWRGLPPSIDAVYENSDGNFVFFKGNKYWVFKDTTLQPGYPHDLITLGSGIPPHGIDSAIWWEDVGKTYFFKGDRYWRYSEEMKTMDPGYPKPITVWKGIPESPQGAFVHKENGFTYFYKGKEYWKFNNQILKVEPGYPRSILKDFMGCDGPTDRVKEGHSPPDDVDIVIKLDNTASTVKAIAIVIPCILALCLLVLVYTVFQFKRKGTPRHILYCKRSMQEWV

SMILES: COC(=O)CCNC(=O)[C@H](CC(C)C)NC(=O)[C@@H](NC(=O)CNC(=O)[C@H](CC(C)C)NC(=O)[C@@H]1CCCN1C(C)=O)Nc1ccc([N+](=O)[O-])cc1 [Example 1.1, Methyl 1-acetyl-L-prolyl-L-leucylglycyl-α-R-(4-nitrophenylamino)-glycyl-L-leucyl-β-alaninate]
- Activity (MMP9; 30 μM substrate, MMP Conc. 0.27 nM, AZL0064): 7.4 units/s
- Activity of selected substrates with MMPs (MMP9; Table 1b, MMP9): 62.9 units/s (molRXH/molEnz * s)
- Activity (MMP14): 1.0 units/s
- Activity (MMP16): 1.4 units/s
- Activity (MMP2): 2.3 units/s
- Activity (MMP13): 1.9 units/s
- Activity (MMP19): 0.13 units/s
